Assay results taken from article PMC6312923 (Life Science Alliance, 2018).

Assays:
Format in all cases: cell-based, human
[1] = tested on: Cdt1 and p21 poly-ubiquitination; assay: Poly-ubiquitination of Cdt1 and p21 in U2OS cells; details: U2OS stable cells, MG132 3 h
Protocol: (§1) To consider this possibility, asynchronously growing control HEK293 cells and cells expressing Cdt2^WT or Cdt2^PIP-3A were treated with proteasome inhibitor MG132 and the levels of poly-ubiquitinated Cdt1 were examined. […] Cdt2^PIP-3A-expressing cells however had reduced level of both poly-ubiquitinated Cdt1 and p21 on chromatin.
(§2) Figure S7. Cdt2 PIP box is important for CRL4^Cdt2 activity in U2OS cells. (A) U2OS stable cells expressing Cdt2^WT or Cdt2^PIP-3A. U2OS cells were transfected with expression vectors for Cdt2^WT-FLAG or Cdt2^PIP-3A-FLAG, and isolated stable clones were verified by immunofluorescent analysis and Western blot analysis. Frequency of expressing cells for each construct was shown (%). (B) Poly-ubiquitination assay with U2OS stable cells. U2OS cells and Cdt2^WT-3FLAG or Cdt2^PIP-3A-3FLAG expressing stable U2OS cells were treated with MG132 for 3 h or not (−), and whole-cell extracts were prepared for Western blotting. (C) Cells were transfected with siCdt2 or control siLuc for 72 h, irradiated with UV (+, 5 J/m^2) or not (−), and collected 1h later for Western blotting. Relative levels of Cdt1 were shown, UV (−) level set as 1.0 (average of two independent experiments).

[2] = tested on: UV-C–damaged sites in MCF7 cells; assay: FRAP of GFP-tagged proteins at sites of local UV-C damage in MCF7 cells
Protocol: (C) MCF7 cells were transfected with the indicated GFP-tagged plasmids and 24 h later they were locally UV-C irradiated (50 J/m^2). 20 min following irradiation, FRAP experiments were conducted at the site of damage and in untreated cells (Fig S1). FRAP data were analysed with easyFRAP. Mean normalized fluorescence intensities at the site of damage as a function of time following photobleaching are shown. (D) MCF7 cells were synchronized in the S phase by treatment with 2-mM thymidine for 24 h. Upon release, cells were transfected with siCdt1 or control siLuc in parallel with a plasmid expressing GFP-tagged Cdt2. Cells were then synchronised in the M phase by treatment with 50 ng/ml nocodazole for 12 h, released into G1 for 5 h, and locally UV-C irradiated (50 J/m^2). 20 min after irradiation, the cells were analysed by FRAP. Mean normalized fluorescence recovery curves at the sites of damage are shown.
To perform micropore UV irradiation, cells were cultured on cover slips, washed twice with PBS, and subsequently covered with an isopore polycarbonate membrane filter (Millipore) with a pore size of either 3 or 5 μm in diameter, and irradiated. UV irradiation was achieved using a UV lamp (SUV-16, As One, Japan) with a dose rate of 0.4 J/m^2·s, which was monitored with a UV radiometer (UVX Radiometer, UVP) at 254 nm, or with a UV box equipped with a UV-C lamp monitored with a VLX-3W radiometer (Vilber Lourmat) at 254 nm (CX-254 sensor). The filter was removed and cells were either fixed or cultured for the indicated time before fixation, and processed for immunofluorescence. For FRAP analysis, cells were cultured for 20 min to allow recruitment to sites of damage before photobleaching.
Cells (HeLa or MCF7) were plated on 35-mm glass-bottom dishes in phenol-red–free medium (Invitrogen). […] A Leica TCS SP5 microscope equipped with a 63x magnification 1.4 NA oil-immersion lens and FRAP booster were used. During FRAP, cells were maintained at 37°C and 5% CO2. A defined circular region of interest with 2 μm diameter (ROI1) was placed in the nucleus and at the recruitment sites. GFP was excited using a 488-nm argon laser line. 50 pre-bleach images were acquired with 3% of the 488-nm line at 60% argon laser intensity, followed by a single bleach pulse on ROI1 using 476-nm and 488-nm laser lines combined at maximum power. In this manner, at least 60% of the fluorescence in ROI1 was bleached successfully. Next, 400 post-bleach images with a 0.052 s interval were recorded. Mean intensities of ROI1, the whole nucleus (ROI2) and an area outside of the nucleus (ROI3) were quantified and exported as .csv format files.

Cdt1 = assay: Co-immunoprecipitation of Cdt1 with FLAG-tagged Cdt2; details: anti-FLAG IP, HEK293, with or without UV irradiation
Description: Figure 3. […] HEK293 cells were transfected with plasmids expressing the indicated Cdt2 fused to a C-terminal FLAG tag, cross-linked, and precipitated with anti-FLAG antibodies (arrows). […] The bands in the blank lanes for Cul4A blotting correspond to the cross-reacting bands to pre-stained marker. […] HEK293 cells were transfected with the indicated plasmids and treated as in A. * indicates nonspecific bands derived from IgGs. (C) A schematic drawing of the Cdt2 domain structure highlighting the C-terminal PIP box and a sequence alignment of PIP boxes in various organisms. The alanine-changed PIP box mutant of Cdt2 was shown (PIP-3A) together with Cdt1 PIP box. (D) HEK293 cells were transfected with Cdt2^WT or PIP box mutant (Cdt2^PIP-3A) C-terminally fused to a FLAG tag, treated as in B, and Cdt2 was precipitated with anti-FLAG resin.
Next, we examined the interaction of CRL4^Cdt2 ligase with its target protein Cdt1, using HEK293 cells alone and cells transfected with Cdt2^WT or Cdt2^PIP-3A, with or without UV irradiation. […]

[3] = tested on: HEK293 cells, UV-irradiated sites; assay: Recruitment of FLAG-Cdt2 to UV-irradiated (XPA) sites in HEK293 cells; details: stable HEK293 cells, XPA-positive spots
Protocol: Figure 6. The Cdt2 PIP box is important for its recruitment to DNA damage sites and replication foci and for poly-ubiquitination activity. (A) HEK293 and stable Cdt2^WT or Cdt2^PIP-3A cells were locally UV irradiated, and stained for XPA and FLAG (Cdt2). XPA-positive spots were examined for FLAG signal, and its frequency was counted (%). More than 50 spots were examined. bar:10 μm. […] Bar: 10 μm. […] (D) Whole-cell extracts were prepared from HEK293 and stably transfected cells of Cdt2^WT or Cdt2^PIP-3A cells, separated into soluble (Sup) and chromatin-containing insoluble (Ppt) fractions, and were examined for indicated proteins. The asterisk indicates nonspecific bands. (E) HEK293 and stably transfected cells of Cdt2^WT or Cdt2^PIP-3A were treated with MG132 for 3 h. […]
For Western blotting, whole-cell lysates were prepared by lysing cell pellets directly in SDS–PAGE buffer. […] Protein levels were analysed by ImageJ software.
We used a method to induce DNA photoproducts within localized areas of the cell nucleus as described in Ishii et al (2010). […] UV irradiation was achieved using a UV lamp (SUV-16, As One, Japan) with a dose rate of 0.4 J/m^2·s, which was monitored with a UV radiometer (UVX Radiometer, UVP) at 254 nm, or with a UV box equipped with a UV-C lamp monitored with a VLX-3W radiometer (Vilber Lourmat) at 254 nm (CX-254 sensor). […]

p21 poly-ubiquitination = assay: Poly-ubiquitination of p21 in HEK293 cells; details: HEK293, MG132 3 h, chromatin fraction
Protocol: Figure 6. The Cdt2 PIP box is important for its recruitment to DNA damage sites and replication foci and for poly-ubiquitination activity. (A) HEK293 and stable Cdt2^WT or Cdt2^PIP-3A cells were locally UV irradiated, and stained for XPA and FLAG (Cdt2). XPA-positive spots were examined for FLAG signal, and its frequency was counted (%). More than 50 spots were examined. bar:10 μm. […] Bar: 10 μm. […] (D) Whole-cell extracts were prepared from HEK293 and stably transfected cells of Cdt2^WT or Cdt2^PIP-3A cells, separated into soluble (Sup) and chromatin-containing insoluble (Ppt) fractions, and were examined for indicated proteins. The asterisk indicates nonspecific bands. (E) HEK293 and stably transfected cells of Cdt2^WT or Cdt2^PIP-3A were treated with MG132 for 3 h. Whole-cell extracts (WCE) were prepared, separated into soluble (Sup) and insoluble (Ppt) fractions, and blotted with the indicated antibodies.
as §1

PCNA mono-ubiquitination = assay: Mono-ubiquitination of PCNA; details: in comparison with Cdt2^wt-expressing cells, Fig S7B
Description: as §2

[4] = GFP-tagged, site of UV-C damage (50 J/m^2), 20 min after irradiation

| Molecule | poly-ubiquitination of Cdt1 and p21 [1] | half-recovery time [2, 4] | immobile fraction [2, 4] | FRAP binding kinetics at damage sites after Cdt1 depletion ([2]; MCF7 synchronized in G1, siCdt1 versus siLuc, Fig 1D) | co-precipitation of PCNA and Cdt1 (Cdt1) | recruitment to UV-irradiated sites [3] | poly-ubiquitinated p21 on chromatin (p21 poly-ubiquitination) | mUb-PCNA level (PCNA mono-ubiquitination) |
| --- | --- | --- | --- | --- | --- | --- | --- | --- |
| Cdt2: Cdt2 tagged with GFP, transiently expressed in MCF7 cells | Increased levels | 0.83 s | 16% | remain the same despite the absence of Cdt1 | both PCNA and Cdt1 were precipitated, and their amounts were notably increased after UV irradiation |  |  |  |
| Cdt2^PIP-3A: Cdt2 with I709, Y712, and F713 all mutated to alanine (protein, UniProt Q9NZJ0 1-730, looked up, variant I709A Y712A F713A, FLAG tag, Cdt2 with I709, Y712, and F713 all mutated to alanine) Denticleless protein homolog: MLFNSVLRQPQLGVLRNGWSSQYPLQSLLTGYQCSGNDEHTSYGETGVPVPPFGCTFSSAPNMEHVLAVANEEGFVRLYNTESQSFRKKCFKEWMAHWNAVFDLAWVPGELKLVTAAGDQTAKFWDVKAGELIGTCKGHQCSLKSVAFSKFEKAVFCTGGRDGNIMVWDTRCNKKDGFYRQVNQISGAHNTSDKQTPSKPKKKQNSKGLAPSVDFQQSVTVVLFQDENTLVSAGAVDGIIKVWDLRKNYTAYRQEPIASKSFLYPGSSTRKLGYSSLILDSTGSTLFANCTDDNIYMFNMTGLKTSPVAIFNGHQNSTFYVKSSLSPDDQFLVSGSSDEAAYIWKVSTPWQPPTVLLGHSQEVTSVCWCPSDFTKIATCSDDNTLKIWRLNRGLEEKPGGDKLSTVGWASQKKKESRPGLVTVTSSQSTPAKAPRAKCNPSNSSPSSAACAPSCAGDLPLPSNTPTFSIKTSPAKARSPINRRGSVSSVSPKPPSSFKMSIRNWVTRTPSSSPPITPPASETKIMSPRKALIPVSQKSSQAEACSESRNRVKRRLDSSCLESVKQKCVKSCNCVTELDGQVENLHLDLCCLAGNQEDLSKDSLGPTKSSKIEGAGTSISEPPSPISPYASESCGTLPLPLRPCGEGSEMVGKENSSPENKNWLLAMAAKRKAENPSPRSPSSQTPNSRRQSGKKLPSPVTITPSSMRKACTAAHRKSQEDFCGPEHSTEL |  |  |  |  | neither Cdt1 nor PCNA co-precipitated well | not recruited to UV-irradiated sites | reduced level | decreased |
